Experimental data: US20260258081A1, “PEPTIDE HAVING HAIR GROWTH PROMOTING ACTIVITY, AND USE THEREOF” (CAREGEN CO., LTD., priority 2019, published 2026)

How the values were obtained:
Assay type in all cases: cell-based
[1] = system: human hair follicle germinal matrix cells; test: PCR expression of MSX2 (activity of germinal matrix cells); details: peptide 0.5 uM, 5 uM or 50 uM, 1 day, serum-free medium, FIG. 6
Procedure: (§1) The promoting effect of the peptide consisting of the amino acid sequence of SEQ ID NO: 1 on the activity of germinal matrix cells was to be confirmed. In detail, human hair follicle dermal papilla cells were seeded in a 96-well plate at a density of 4×10^5 cells/well, and cultured for 16 hours. The culture medium was replaced with a serum-free medium, and the peptide was added thereto at a concentration of 0.5 uM, 5 uM, or 50 uM, and the cells were cultured for 1 day. Here, as a positive control group, 5 uM of EGF was treated. After the cells were harvested, RNA was extracted therefrom and used for synthesis of cNDA by using a cDNA synthesis kit and PCR pre-mix.

[2] = system: human dermal papilla cells; test: PCR expression of growth factors VEGF, bFGF, KGF and HGF; details: peptide 0.5 uM, 5 uM or 50 uM, 1 day, serum-free medium, FIG. 3
Procedure: as §1, with “a growth factor of hair follicle” for “germinal matrix”, “human” for “human hair follicle”, “Minoxidil” for “EGF”

[3] = system: human dermal papilla cells; test: PCR expression of Lef-1, Cyclin D1 and c-Myc (activity of dermal papilla cells); details: peptide 0.5 uM, 5 uM or 50 uM, 1 day, serum-free medium, FIG. 2
Procedure: as §1, with “hair follicle” for “germinal matrix”, “human” for “human hair follicle”, “Minoxidil” for “EGF”, “cDNA” for “cNDA”, “pre-mix (Intron, Korea).” for “pre-mix.”

[4] = system: human dermal papilla cells; test: PCR expression of DKK-1 under DHT stimulation; details: DHT 10 ug/ml as stimulator, peptide 0.5 uM, 5 uM or 50 uM, 1 day, serum-free medium, FIG. 5
Procedure: The inhibitory effect of the peptide consisting of the amino acid sequence of SEQ ID NO: 1 on the expression of DKK-1, which is a hair loss-related factor, in hair follicle cells was to be confirmed. In detail, human dermal papilla cells were seeded in a 96-well plate at a density of 4×10^5 cells/well, and cultured for 16 hours. After the culture medium was replaced with a serum-free medium, dihydrotestosterone (DHT) as a stimulator was added thereto at a concentration of 10 ug/ml while peptide was added thereto at a concentration of 0.5 uM, 5 uM, or 50 uM. Then, the cells were cultured for 1 day. As a positive control, 50 uM of Finasteride which is a drug inhibiting male hormones was treated. Here, DHT is known as a hair loss hormone that increases the expression of DKK-1, which is a hair loss-inducible factor, by activating an androgen receptor. After the cells were harvested, RNA was extracted therefrom and used for synthesis of cNDA by using a cDNA synthesis kit and PCR pre-mix.

[5] = system: human dermal papilla cells; test: Western blotting of apoptosis-related proteins Bax, Cleaved PARP-1, Cleaved Caspase-3, Bcl2; details: peptide 0.5 uM, 5 uM or 50 uM, 1 day, serum-free medium; western blot; FIG. 4
Procedure: The inhibitory effect of the peptide consisting of the amino acid sequence of SEQ ID NO: 1 on the control of expression of apoptosis-related proteins of hair follicle cells was to be confirmed. In detail, human dermal papilla cells were seeded in a 96-well plate at a density of 4×10^5 cells/well, and cultured for 16 hours. The culture medium was replaced with a serum-free medium, and the peptide was added thereto at a concentration of 0.5 uM, 5 uM, or 50 uM, and the cells were cultured for 1 day. Here, as a positive control group, 5 uM of Minoxidil was treated. Cell lysates were prepared by harvesting the cell, and then, western blotting was performed with respect to Bax, Cleaved PARP-1, Cleaved Caspase-3, or Bcl2 by using Bax antibodies, Cleaved PARP-1 antibodies, Cleaved Caspase-3 antibodies, or Bcl2 antibodies (Santacruz biotechnology, USA), respectively.

[6] = system: human hair follicle dermal papilla cells; test: β-catenin movement from cytoplasm to nucleus, western blotting of nuclear extract; details: peptide 0.5 uM, 5 uM or 50 uM, 1 day, serum-free medium; western blot; FIG. 1
Procedure: The promoting effect of the peptide consisting of the amino acid sequence of SEQ ID NO: 1 on the proliferation of hair follicle cells was to be confirmed. In detail, human hair follicle dermal papilla cells were seeded in a 96-well plate at a density of 4×10^5 cells/well, and cultured for 16 hours. The culture medium was replaced with a serum-free medium, and the peptide was added thereto at a concentration of 0.5 uM, 5 uM, or 50 uM, and the cells were cultured for 1 day. Here, as a positive control group, 5 uM of Minoxidil which is used as a hair loss treatment was treated. The cells were harvested and nuclei thereof were isolated by using a nuclear protein extraction kit (Merck, USA). Then, western blotting was performed with respect to β-catenin which is a factor related to proliferation of the dermal papilla cells by using β-catenin antibodies (Santacruz biotechnology, USA).

[7] = system: human hair follicle outer root sheath cells; test: PCR expression of HA3-II, Keratin 5, Keratin 14 and Keratin 19 (activity of outer root sheath cells); details: peptide 0.5 uM, 5 uM or 50 uM, 1 day, serum-free medium, FIG. 7
Procedure: as §1, with “hair follicle outer root sheath” for “germinal matrix”, “outer root sheath” for “dermal papilla”, “pre-mix. Then, PCR was performed by using the primer of GAPDH shown in Table 2 and primers of HA3-II, Keratin 5, Keratin 14, and Keratin […] shown in Table 6.” for “pre-mix.”

TKVFPQD [SEQ ID NO: 1]
expression of MSX2 [1]: increase
expression of HGF [2]: increased
expression of KGF [2]: increased
expression of VEGF [2]: increased
expression of bFGF [2]: increased
expression of Cyclin D1 [3]: increased
expression of Lef-1 [3]: increased
expression of c-Myc [3]: increased
expression pathway of DKK-1 [4]: inhibit
expression of Bax [5]: decreased
expression of Bcl2 (anti-apoptosis-related protein) [5]: increased
expression of Cleaved Caspase-3 [5]: decreased
expression of Cleaved PARP-1 [5]: decreased
movement of β-catenin from the cytoplasm to the nucleus [6]: increased
expression of HA3-II [7]: increase
expression of Keratin 5 [7]: increase
expression of Keratin 14 [7]: increase
expression of Keratin 19 [7]: increase
